# Test results: ChEMBL document CHEMBL5532661, “Discovery of a Novel Glucagon-like Peptide-1 (GLP-1) Analogue from Bullfrog and Investigation of Its Potential for Designing GLP-1-Based Multiagonists” (J Med Chem, 2024)
# Numbered stars: 1 amine (or outer) side, 2 acyl side, 3 side chain; on linkers, the order of the positions; unused ones are H or OH. Square brackets hold non-standard residues; d marks the D form. Side chains are listed from the residue outwards. Peptide text beside a SMILES is read from it. * marks the point of attachment. C18 diacid = O=C(O)CCCCCCCCCCCCCCCCC(=O)*; γGlu = O=C(O)[C@H](CCC(=O)[*:2])N[*:1]; Palmitoyl = CCCCCCCCCCCCCCCC(=O)*; AEEA = NCCOCCOCC(=O)O; Aib = CC(C)(N)C(=O)O
# Columns and labels:
# Format in all cases: functional, cell-based
# [1] = molecular target: T1, Glucagon-like peptide 1 receptor (Homo sapiens, UniProt P43220); assay: Agonist activity at human GLP-1 receptor expressed in HEK293 cells assessed as cAMP level measured after 60 mins by HTRF based assay
# T1 sequence (P43220 whole entry): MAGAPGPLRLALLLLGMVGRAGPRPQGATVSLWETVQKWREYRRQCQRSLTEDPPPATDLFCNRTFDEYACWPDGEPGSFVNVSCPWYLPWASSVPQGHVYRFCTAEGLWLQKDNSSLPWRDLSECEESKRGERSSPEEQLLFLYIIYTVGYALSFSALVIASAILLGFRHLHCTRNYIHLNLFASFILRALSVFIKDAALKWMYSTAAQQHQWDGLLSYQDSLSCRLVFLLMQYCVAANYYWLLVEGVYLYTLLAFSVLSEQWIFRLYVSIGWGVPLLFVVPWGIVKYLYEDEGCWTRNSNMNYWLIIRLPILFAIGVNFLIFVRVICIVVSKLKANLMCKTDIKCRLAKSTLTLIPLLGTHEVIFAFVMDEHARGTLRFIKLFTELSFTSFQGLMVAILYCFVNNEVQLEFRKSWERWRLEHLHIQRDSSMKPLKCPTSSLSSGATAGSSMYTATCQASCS
# [2] = molecular target: T1, Glucagon-like peptide 1 receptor; assay: Agonist activity at human GLP-1 receptor expressed in HEK293 cells assessed as cAMP level by measuring relative percent (GLP-1 EC50/compound EC50) measured after 60 mins by HTRF based assay relative to GLP-1
# Glucagon receptor [3] = molecular target: T2, Glucagon receptor (Homo sapiens, UniProt P47871); assay: Agonist activity at human GCGR expressed in HEK293 cells assessed as cAMP level measured after 60 mins by HTRF based assay
# T2 sequence (P47871 whole entry): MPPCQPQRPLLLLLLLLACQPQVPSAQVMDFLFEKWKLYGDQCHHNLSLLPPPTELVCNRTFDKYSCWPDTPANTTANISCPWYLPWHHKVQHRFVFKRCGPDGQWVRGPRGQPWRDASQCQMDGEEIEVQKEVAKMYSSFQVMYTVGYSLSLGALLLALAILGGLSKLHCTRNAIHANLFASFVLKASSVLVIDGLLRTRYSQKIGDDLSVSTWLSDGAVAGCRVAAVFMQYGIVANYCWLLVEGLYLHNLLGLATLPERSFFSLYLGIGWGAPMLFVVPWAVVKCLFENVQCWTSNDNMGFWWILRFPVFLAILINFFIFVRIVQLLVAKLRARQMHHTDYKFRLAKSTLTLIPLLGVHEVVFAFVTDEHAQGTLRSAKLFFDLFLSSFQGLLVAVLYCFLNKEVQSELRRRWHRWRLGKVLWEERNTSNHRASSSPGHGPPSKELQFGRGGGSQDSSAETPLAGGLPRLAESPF
# Glucagon receptor [4] = molecular target: T2, Glucagon receptor; assay: Agonist activity at human GCGR expressed in HEK293 cells assessed as cAMP level by measuring relative percent (glucagon EC50/compound EC50) measured after 60 mins by HTRF based assay relative to glucagon
# [5] = molecular target: T3, Gastric inhibitory polypeptide receptor (Homo sapiens) (UniProt P48546); assay: Agonist activity at human GIPR receptor expressed in HEK293 cells assessed as cAMP level by measuring relative percent (GIP EC50/compound EC50) measured after 60 mins by HTRF based assay relative to GIP
# T3 sequence (whole entry): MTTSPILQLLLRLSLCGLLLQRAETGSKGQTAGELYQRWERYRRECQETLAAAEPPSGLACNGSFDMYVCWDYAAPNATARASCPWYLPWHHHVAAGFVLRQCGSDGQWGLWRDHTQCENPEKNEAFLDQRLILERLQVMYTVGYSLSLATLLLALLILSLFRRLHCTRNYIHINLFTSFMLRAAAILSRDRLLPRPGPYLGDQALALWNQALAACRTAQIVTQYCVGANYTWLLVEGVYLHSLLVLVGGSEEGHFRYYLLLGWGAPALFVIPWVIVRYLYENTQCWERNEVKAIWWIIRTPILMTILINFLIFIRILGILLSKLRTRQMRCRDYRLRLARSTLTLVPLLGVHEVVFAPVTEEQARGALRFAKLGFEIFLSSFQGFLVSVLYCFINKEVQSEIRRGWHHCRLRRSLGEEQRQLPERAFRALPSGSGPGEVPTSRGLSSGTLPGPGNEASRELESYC
# [6] = molecular target: T4, Gastric inhibitory polypeptide receptor (Homo sapiens, UniProt P48546); assay: Agonist activity at human GIPR receptor expressed in HEK293 cells assessed as cAMP level measured after 60 mins by HTRF based assay
# T4 sequence (P48546 whole entry): T3 sequence (whole entry)
Molecule,EC50 [1],Activity ([2]; filed as agonist),EC50 (Glucagon receptor [3]),Activity (Glucagon receptor [4]),Activity [5],EC50 [6],Activity [2],Activity (Glucagon receptor [4]; filed as agonist)
CCCCCCCCCCCCCCCC(=O)N[C@@H](CCC(=O)NCCCC[C@H](NC(=O)[C@H](CO)NC(=O)[C@@H]1CCCN1C(=O)[C@@H]1CCCN1C(=O)[C@@H]1CCCN1C(=O)[C@H](C)NC(=O)CNC(=O)[C@H](CO)NC(=O)[C@H](CO)NC(=O)[C@@H]1CCCN1C(=O)CNC(=O)CNC(=O)[C@H](CC(N)=O)NC(=O)[C@H](CCCCN)NC(=O)[C@H](CC(C)C)NC(=O)[C@H](Cc1c[nH]c2ccccc12)NC(=O)[C@H](CC(=O)O)NC(=O)[C@@H](NC(=O)[C@H](Cc1ccccc1)NC(=O)[C@H](CC(=O)O)NC(=O)[C@H](CCC(N)=O)NC(=O)[C@H](C)NC(=O)[C@H](CCCNC(=N)N)NC(=O)[C@H](CCCNC(=N)N)NC(=O)[C@H](CO)NC(=O)[C@H](CC(=O)O)NC(=O)[C@H](CC(C)C)NC(=O)[C@H](Cc1ccc(O)cc1)NC(=O)[C@H](CCCCN)NC(=O)[C@H](CO)NC(=O)[C@H](CCSC)NC(=O)[C@H](CC(=O)O)NC(=O)[C@H](CO)NC(=O)[C@@H](NC(=O)[C@H](Cc1ccccc1)NC(=O)[C@@H](NC(=O)CNC(=O)[C@H](CCC(N)=O)NC(=O)[C@H](CO)NC(=O)[C@@H](N)Cc1c[nH]cn1)[C@@H](C)O)[C@@H](C)O)C(C)C)C(N)=O)C(=O)O (H-HSQGTFTSDMSKYLDSRRAQDFVDWLKNGGPSSGAPPPSK([γGlu-Palmitoyl])-NH2),0.068 nM,78%,0.53 nM,17%,,,,
CC[C@H](C)[C@H](NC(=O)[C@H](CCCCNC(=O)COCCOCCNC(=O)COCCOCCNC(=O)CC[C@H](NC(=O)CCCCCCCCCCCCCCCCC(=O)O)C(=O)O)NC(=O)[C@H](CCC(=O)O)NC(=O)[C@H](CC(C)C)NC(=O)[C@H](C)NC(=O)[C@H](CCCNC(=N)N)NC(=O)[C@H](CO)NC(=O)[C@H](CC(C)C)NC(=O)[C@H](CC(=O)O)NC(=O)[C@H](CO)NC(=O)[C@@H](NC(=O)[C@H](Cc1ccccc1)NC(=O)[C@@H](NC(=O)CNC(=O)[C@H](CCC(N)=O)NC(=O)C(C)(C)NC(=O)[C@@H](N)Cc1c[nH]cn1)[C@@H](C)O)[C@@H](C)O)C(=O)N[C@@H](C)C(=O)N[C@@H](C)C(=O)N[C@@H](CCCNC(=N)N)C(=O)N[C@@H](CC(C)C)C(=O)N[C@@H](Cc1ccccc1)C(=O)N[C@H](C(=O)N[C@@H](CCC(=O)O)C(=O)N[C@@H](Cc1c[nH]c2ccccc12)C(=O)N[C@@H](CC(C)C)C(=O)N[C@H](C(=O)N[C@@H](CCC(=O)O)C(=O)NCC(=O)NCC(=O)N1CCC[C@H]1C(=O)N[C@@H](CO)C(=O)N[C@@H](CO)C(=O)NCC(=O)N[C@@H](C)C(=O)N1CCC[C@H]1C(=O)N1CCC[C@H]1C(=O)N1CCC[C@H]1C(=O)N[C@@H](CO)C(N)=O)[C@@H](C)CC)[C@@H](C)CC (H-H[Aib]QGTFTSDLSRALEK([AEEA-AEEA-γGlu-C18 diacid])IAARLFIEWLIEGGPSSGAPPPS-NH2),0.022 nM,241%,1.8 nM,5%,3%,0.97 nM,,
CC[C@H](C)[C@H](NC(=O)[C@H](CCCCNC(=O)COCCOCCNC(=O)COCCOCCNC(=O)CC[C@H](NC(=O)CCCCCCCCCCCCCCCCC(=O)O)C(=O)O)NC(=O)[C@H](CCC(=O)O)NC(=O)[C@H](CCSC)NC(=O)[C@H](C)NC(=O)[C@H](CCCNC(=N)N)NC(=O)[C@H](CO)NC(=O)[C@H](CC(C)C)NC(=O)[C@H](CC(=O)O)NC(=O)[C@H](CO)NC(=O)[C@@H](NC(=O)[C@H](Cc1ccccc1)NC(=O)[C@@H](NC(=O)CNC(=O)[C@H](CCC(N)=O)NC(=O)C(C)(C)NC(=O)[C@@H](N)Cc1c[nH]cn1)[C@@H](C)O)[C@@H](C)O)C(=O)N[C@@H](C)C(=O)N[C@H](C(=O)N[C@@H](CCCNC(=N)N)C(=O)N[C@@H](CC(C)C)C(=O)N[C@@H](Cc1ccccc1)C(=O)N[C@H](C(=O)N[C@@H](CCC(=O)O)C(=O)N[C@@H](Cc1c[nH]c2ccccc12)C(=O)N[C@@H](CC(C)C)C(=O)N[C@H](C(=O)N[C@@H](CCC(=O)O)C(=O)NCC(=O)NCC(=O)N1CCC[C@H]1C(=O)N[C@@H](CO)C(=O)N[C@@H](CO)C(=O)NCC(=O)N[C@@H](C)C(=O)N1CCC[C@H]1C(=O)N1CCC[C@H]1C(=O)N1CCC[C@H]1C(=O)N[C@@H](CO)C(N)=O)[C@@H](C)CC)[C@@H](C)CC)C(C)C (H-H[Aib]QGTFTSDLSRAMEK([AEEA-AEEA-γGlu-C18 diacid])IAVRLFIEWLIEGGPSSGAPPPS-NH2),0.03 nM,177%,2.6 nM,4%,3%,0.99 nM,,
H-HSQGTFTSDMSKYLDSRRAQDFVDWLIKG-NH2,0.81 nM,,2.6 nM,4%,,,7%,
H-HSQGTFTSDMSKYLDSRRAQDFVDWLIKGR-NH2,0.28 nM,,1.8 nM,5%,,,19%,
H-HSQGTFTSDMSKYLDSRRAQDFVDWLIKGRNRNNIA-NH2,0.091 nM,58%,0.18 nM,,,,,51%
H-HSQGTFTSDMSKYLDSRRAQDFVDWLIKGRPSSGAPPPS-NH2,0.13 nM,41%,0.91 nM,10%,,,,
H-HSQGTFTSDMSKYLDSRRAQDFVDWLKNGGPSSGAPPPS-NH2,0.016 nM,331%,0.052 nM,,,,,177%
H-HSQGTFTSDMSSYLDSRRAQDFVDWLIKGR-NH2,0.7 nM,,3.1 nM,3%,,,5%,
H-HSQGTFTSDMSSYLDSRRAQDFVDWLIKGRPSSGAPPPS-NH2,0.21 nM,,1.8 nM,5%,,,25%,
H-HSQGTFTSDMSSYLDSRRAQDFVDWLKNGGPSSGAPPPS-NH2,0.061 nM,87%,0.15 nM,,,,,61%
H-HSQGTFTSDMSSYLDSRRAQDFVDWLMNT-NH2,0.96 nM,,0.51 nM,18%,,,6%,
H-HSQGTFTSDMSSYLDSRRAQDFVDWLMNTKRNRNNIA-NH2,0.11 nM,45%,0.85 nM,11%,,,,
H-HSQGTFTSDMSSYLDSRRAQEFVDWLIKGR-NH2,0.87 nM,,3.5 nM,3%,,,6%,
